Experiments:
[1] = biological target: T1, Purified recombinant NBD1 (Homo sapiens, UniProt P13569); test: Aggregation analysis using differential static light scattering (DSLS): thermal stability of NBD1; format: binding; settings: NBD1 0.2 mg/ml; Tagg of compound well minus average Tagg of DMSO control wells
T1 construct: Purified recombinant NBD1 was produced using previously described methods; made in house
Method in brief: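 Recombinant NBD1 at 0.2 mg/ml in Tris/NaCl/MgCl2 buffer with 2 mM ATP, 2 mM DTT, 1% glycerol, pH 7.6, was incubated with compound and heated at 1 °C/min to 70 °C while static light scattering was monitored. Tagg was taken from the curve inflection point and reported as ΔTagg relative to DMSO controls.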

[2] = tested on: Primary human bronchial epithelial cells from a ΔF508 homozygous CF donor (CF-HBE cells); test: TECC24 recording of CFTR-mediated transepithelial chloride transport, AUC fold over benchmark VX-809 @10 μM; format: cell-based; settings: 48 hours incubation, AUC of forskolin-stimulated IEQ
Method: The effects of a test agent on CFTR-mediated transepithelial chloride transport is measured using TECC24 recording analysis. Test agents are solubilized in DMSO. Solubilized test agents are mixed with incubation medium containing DMEM/F12, Ultroser G (0.5%; Crescent Chemical, catalog #67042), Hyclone Fetal Clone II (2%; GE Healthcare, catalog #SH30066.02), bovine brain extract (0.25%; Lonza, catalog #CC-4098), insulin ([…]), IL-13 (10 ng/mL), hydrocortisone (20 nM), transferrin ([…]), triiodothyronine (500 nM), ethanolamine (250 nM), epinephrine (1.5 μM), phosphoethanolamine (250 nM), and retinoic acid (10 nM). Primary human bronchial epithelial cells from a ΔF508 homozygous CF donor (CF-HBE cells; from University of North Carolina Cystic Fibrosis Tissue Procurement Center), grown on Transwell HTS 24-well cell culture inserts (Costar, catalog #3378), are exposed to test agents or controls dissolved in incubation medium. The CF-HBE cells are cultured at 36.5° C. for 48 hours before TECC24 recordings are performed in the presence or absence of test agent, a positive control or vehicle (DMSO).
Following incubation, the transwell cell culture inserts containing the test agent or control-treated CF-HBE cells are loaded onto a TECC24 apparatus (TECC v7 or MTECC v2; EP Design) to record the transepithelial voltage (VT) and resistance (TEER) using 4 AgCl electrodes per well configured in current-clamp mode. The apical and basolateral bath solutions both contain (in mM) 140 NaCl, 5 KCl, 2 CaCl2), 1 MgCl2, 10 Hepes, and 10 glucose (adjusted to pH 7.4 with NaOH). To inhibit basal Na+ absorption, the ENaC inhibitor benzamil (10 μM) is added to the bath. Then, the adenylate cyclase activator, forskolin (10 μM), is added to the bath to activate CFTR. The forskolin-stimulated Cl− transport is halted by addition of CFTR inhibitor-172 (20 μM) to the bath at the end of the experiment to confirm specificity. VT and TEER recordings are digitally acquired at routine intervals using TECC or MTECC software (EP Design). VT and TEER are transformed into equivalent transepithelial Cl− current (IEQ), and the Area Under the Curve (AUC) of the IEQ time course between forskolin and CFTR inhibitor-172 addition is generated using Excel (Microsoft). Efficacy is expressed as the ratio of the test agent AUC divided by vehicle AUC. EC50s based on AUC are generated using the non-linear regression log(agonist) vs. response function in Prism software (Graphpad) with HillSlope fixed=1.
If a test agent increases the AUC of the forskolin-stimulated IEQ relative to VX-809 in CF-HBE cells, and this increase is inhibited by CFTR inhibitor-172, then the test agent is considered a CFTR corrector. TECC assay efficacy is expressed as the ratio of the test agent AUC divided by VX-809 AUC. As set forth in Table 2 below, a TECC value less than 3 is marked “A”; a value between 3 and 6 is marked “B”; a value between 6 and 20 is marked “C”.

T1 sequence (P13569 423-646 limits assumed): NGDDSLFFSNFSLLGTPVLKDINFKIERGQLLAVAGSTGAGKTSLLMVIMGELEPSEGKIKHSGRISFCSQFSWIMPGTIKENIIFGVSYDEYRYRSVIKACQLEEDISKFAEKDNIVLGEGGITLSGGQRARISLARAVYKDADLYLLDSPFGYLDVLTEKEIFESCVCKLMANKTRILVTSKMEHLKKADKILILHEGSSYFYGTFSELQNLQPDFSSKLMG

| Structure (SMILES) | DSLS (ΔTagg) [1] | TECC (test agent AUC divided by VX-809 AUC) [2] |
| --- | --- | --- |
| CN1CC(C)(C)CCCC(C)(c2ccc(CCC(=O)O)cc2)c2cnc([nH]2)-c2cc(ccc2F)Oc2c(F)cc3[nH]ccc3c2CCC1=O (single isomer, unassigned) [Compound 47A, 3-[4-(23,29-Difluoro-6,10,10,12-tetramethyl-13-oxo-25-oxa-3,12,20,31-tetrazapentacyclo-[24.3.1.12,5.016,24.017,21]hentriaconta-1(30),2,4,16,18,21,23,26,28-nonaen-6-yl)phenyl]propanoic acid] | A (an ΔTagg value less than or equal to 5 °C is marked “A”) | A (a TECC value less than 3 is marked “A”) |
| CN1CC2(CCCC(C)(c3ccccc3)c3cnc([nH]3)-c3cc(ccc3F)Oc3c(F)cc4[nH]ccc4c3CCC1=O)CC2 (stereo not drawn) [Compound 35, 23,29-Difluoro-6,12-dimethyl-6-phenyl-spiro[25-oxa-3,12,20,31-tetrazapentacyclo[24.3.1.12,5.016,24.017,21]hentriaconta-1(30),2,4,16,18,21,23,26,28-nonaene-10,1′-cyclopropane]-13-one] | A (an ΔTagg value less than or equal to 5 °C is marked “A”) | A (a TECC value less than 3 is marked “A”) |
| C[C@@H](Cc1cccc(C2(C)CCCC(C)(C)N(C)S(=O)(=O)CCc3c(c(F)cc4[nH]ccc34)Oc3ccc(F)c(c3)-c3nc2nn3C)c1)C(=O)O (single isomer, unassigned) [Compound 117A] | B (a value above 5 °C and less than or equal to 10 °C is marked “B”) | A (a TECC value less than 3 is marked “A”) |
| CON(C)C(=O)CCc1cccc(C2(C)CCCC(C)(C)CN(C)C(=O)CCc3c(c(F)cc4[nH]ccc34)Oc3ccc(F)c(c3)-c3ncc2[nH]3)c1 (single isomer, unassigned) [Compound 60A, 3-[3-(23,29-difluoro-6,10,10,12-tetramethyl-13-oxo-25-oxa-3,12,20,31-tetrazapentacyclo-[24.3.1.12,5.016,24.017,21]hentriaconta-1(30),2,4,16,18,21,23,26,28-nonaen-6-yl)phenyl]-N-methoxy-N-methyl-propanamide] | A (an ΔTagg value less than or equal to 5 °C is marked “A”) | A (a TECC value less than 3 is marked “A”) |
| CC1(c2ccccc2)CCCC2(CC2)CNC(=O)CCc2c(c(F)cc3[nH]ccc23)Oc2ccc(F)c(c2)-c2ncc1[nH]2 (stereo not drawn) [Compound 37, 23,29-Difluoro-6-methyl-6-phenyl-spiro[25-oxa-3,12,20,31-tetrazapentacyclo[24.3.1.12,5.016,24.017,21]hentriaconta-1(30),2,4,16,18,21,23,26,28-nonaene-10,1′-cyclopropane]-13-one] | A (an ΔTagg value less than or equal to 5 °C is marked “A”) | A (a TECC value less than 3 is marked “A”) |
| CN1CC(C)(C)CCC[C@](C)(c2cccc(CC(C)(C)C(=O)O)c2)c2nc(n(C)n2)-c2cc(ccn2)Oc2c(F)cc3[nH]ccc3c2CCC1=O [Compound 120, 3-[3-[(6R)-23-fluoro-3,6,10,10,12-pentamethyl-13-oxo-25-oxa-3,4,12,20,29,31-hexazapentacyclo[24.3.1.12,5.016,24.017,21]hentriaconta-1(30),2(31),4,16,18,21,23,26,28-nonaen-6-yl]phenyl]-2,2-dimethyl-propanoic acid] | B (a value above 5 °C and less than or equal to 10 °C is marked “B”) | A (a TECC value less than 3 is marked “A”) |
| CC1(C)CCCCC(C)(c2cccc(CCC(=O)O)c2)c2cnc([nH]2)-c2cc(ccc2F)Oc2c(F)cc3[nH]ccc3c2COC(=O)N1 (single isomer, unassigned) [Compound 93B, 3-[3-(23,29-difluoro-6,11,11-trimethyl-13-oxo-14,25-dioxa-3,12,20,31-tetrazapentacyclo[24.3.1.12,5.016,24.017,21]hentriaconta-1(30),2,4,16,18,21,23,26,28-nonaen-6-yl)phenyl]propanoic acid] | C (a value greater than 10 °C and less than or equal to 25 °C is marked “C”) | A (a TECC value less than 3 is marked “A”) |
| CC1(C)CNC(=O)CCc2c(c(F)cc3[nH]ccc23)Oc2ccc(F)c(c2)-c2ncc([nH]2)C(C)(c2cccc(CCC(=O)O)c2)CCOC1 (single isomer, unassigned) [Compound 67A, 3-[3-(24,30-difluoro-6,11,11-trimethyl-14-oxo-9,26-dioxa-3,13,21,32-tetrazapentacyclo[25.3.1.12,5.017,25.018,22]dotriaconta-1(31),2,4,17,19,22,24,27,29-nonaen-6-yl)phenyl]propanoic acid] | C (a value greater than 10 °C and less than or equal to 25 °C is marked “C”) | C (a value between 6 and 20 is marked “C”) |
| CN1CC(C)(C)CCCC(C)(c2cccc(CCC(=O)O)c2)c2cnc([nH]2)-c2cc(ccc2F)Oc2c(F)cc3[nH]cnc3c2CCC1=O (single isomer, unassigned) [Compound 72A, 3-[3-(23,29-difluoro-6,10,10,12-tetramethyl-13-oxo-25-oxa-3,12,18,20,31-pentazapentacyclo-[24.3.1.12,5.016,24.017,21]hentriaconta-1(30),2,4,16,18,21,23,26,28-nonaen-6-yl)phenyl]propanoic acid] | A (an ΔTagg value less than or equal to 5 °C is marked “A”) | A (a TECC value less than 3 is marked “A”) |
| CN1CC(C)(C)CCCC[C@](C)(c2cccc(CC(C)(C)C(=O)O)c2)c2nc(n(C)n2)-c2cc(ccn2)Oc2c(F)cc3[nH]ccc3c2CC1=O [Compound 124, 3-[3-[(6R)-23-fluoro-3,6,11,11,13-pentamethyl-14-oxo-25-oxa-3,4,13,20,29,31-hexazapentacyclo[24.3.1.12,5.016,24.017,21]hentriaconta-1(30),2(31),4,16,18,21,23,26,28-nonaen-6-yl]phenyl]-2,2-dimethyl-propanoic acid] | A (an ΔTagg value less than or equal to 5 °C is marked “A”) | A (a TECC value less than 3 is marked “A”) |
| CN1CCC(C)(C)CCC(c2ccccc2F)c2cnc([nH]2)-c2cc(ccc2F)Oc2c(F)cc3[nH]ccc3c2CCC1=O (stereo not drawn) [Compound 31, 23,29-difluoro-6-(2-fluorophenyl)-9,9,12-trimethyl-25-oxa-3,12,20,31-tetrazapentacyclo[24.3.1.12,5.016,24.017,21]hentriaconta-1(30),2,4,16,18,21,23,26,28-nonaen-13-one] | A (an ΔTagg value less than or equal to 5 °C is marked “A”) | A (a TECC value less than 3 is marked “A”) |
| CN1CC(C)(C)COCC(C)(c2cccc(CCC(=O)O)c2)c2cnc([nH]2)-c2cc(ccc2F)Oc2c(F)cc3[nH]ccc3c2CCC1=O (single isomer, unassigned) [Compound 20C, 3-[3-(23,29-Difluoro-6,10,10,12-tetramethyl-13-oxo-8,25-dioxa-3,12,20,31-tetrazapentacyclo[24.3.1.12,5.016,24.017,21]hentriaconta-1(30),2,4,16,18,21,23,26,28-nonaen-6-yl)phenyl]propanoic acid] | C (a value greater than 10 °C and less than or equal to 25 °C is marked “C”) | C (a value between 6 and 20 is marked “C”) |
